Measurements: patent US10561642B2, “Treatment of Zika virus infections using alpha-glucosidase inhibitors” (FLORIDA STATE UNIVERSITY RESEARCH FOUNDATION, INC., priority 2016, dated 2020)

Legend:
FSS-13025 strain of ZIKV = assay: Anti-ZIKV activity in SNB-19 cells, ZIKV NS1 expression by Western blot; format: cell-based, Zika virus; settings: 100 μm, 500 μm and 1 mM, treated one hour prior to inoculation (MOI=1), harvested 24 hours post-infection
Procedure: FIG. 1. Castanospermine as anti-ZIKV compound. Castanospermine was screened for antiviral activity against ZIKV infection. Glioblastoma SNB-19 cells were treated with castanospermine at the indicated concentrations one hour prior to inoculation with the FSS-13025 strain of ZIKV (at MOI=1). Cells were harvested 24 hours post-infection and analyzed by Western blot for ZIKV-NS1 or GAPDH.
Cells of the glioblastoma SNB-19 cell line were maintained at 37° C. in 5% CO2 in […], 1× penicillin/streptomycin, and 10% fetal bovine serum (Invitrogen). SNB-19 cells were treated with castanospermine at increasing concentrations (100 μm, 500 μm, and 1 mM) one hour prior to inoculation with the FSS-13025 strain of ZIKV. Cells were harvested 24 hours post-infection and analyzed by Western blot for ZIKV-NS1 or GAPDH.

[1] = system: Japanese encephalitis virus; settings: compared with Dengue virus; cited from earlier work
[2] = system: Japanese encephalitis virus; settings: upon treatment; cited from earlier work

Row | SMILES | Inhibition of ZIKV infection (ZIKV protein NS1 expression) (FSS-13025 strain of ZIKV) | Effect on cell infection by Japanese encephalitis virus [1] | Mortality rate among mice given a lethal dose of Japanese encephalitis virus [2]
1 | O[C@H]1[C@H](O)[C@@H](O)CN2CC[C@H](O)[C@H]12 [castanospermine, (1S,6S,7R,8aR)-Tetrahydroxyoctahydroindolizine] | significantly inhibit ZIKV infection |  | 
2 | CCCCCCCCCN1C[C@H](O)[C@@H](O)[C@H](O)[C@H]1CO [NN-DNJ, N-nonyl-deoxynojirimycin] |  | suppressed cell infection but to a lesser extent than with Dengue virus | decreased mortality rate
